Assay type in all cases: cell-based
Assay [1] has as its system AKTpS473. The assay is described as follows: Western blot IC40 of downstream effector readout. The settings on record: concentration inhibiting AKTpS473 readout by 40%, SkMel133. How it is done:
(§1) In total, cells were treated with 89 unique perturbations (Table 3). In paired combinations, each drug concentration was selected to inhibit the readout for the presumed target or the downstream effectors by 40% (IC40) as determined by Western Blot experiments. In single agent perturbations, each drug is applied at two different concentrations, IC40 and 2×IC40.
(A western blot detects proteins with antibodies after separation by electrophoresis.)

The test system of assay [2] is P27/Kip1. The assay is described as follows: Western blot IC40 of downstream effector readout. The settings on record: concentration changing P27/Kip1 readout by 40%, SkMel133. How it is done:
as §1

Assay [3] concerns c-Myc. The assay is described as follows: Western blot of c-Myc expression. The settings on record: 24 hours after drug treatment, SkMel133. How it is done:
(§2) FIGS. 6A-6E illustrate the combined targeting of c-Myc with MEK and BRAF leads to synergistic response in melanoma cells. […] The leftward shift of isocurves implies synergistic interactions between the applied perturbations. u denotes strength of in silico perturbations. […] The BRD4 level is unchanged in response to JQ1 treatment. […] C-Myc expression is targeted with BRD4 inhibitor, JQ1. […] Cell viability is measured using the resazurin assay. […] The combination index (CI) calculated using the drug dose response curves quantifies the drug interactions between JQ1, MEKi and RAFi (left panel). CI for a given level of inhibition is a measure of the fractional shift between the combination doses (C1 and C2) and the single agent's inhibitory concentration (Cx,1, Cx,2). It is formulated as CI=(C1/Cx,1)[…](C2/Cx,2). Amax is the response of melanoma cells to JQ1, MEKi and RAFi at highest doses applied (right panel). 1-Amax is the fraction of cells alive in response to highest drug dose normalized with respect to the non-drug treated condition. […] 86% of cells are in G1 state 48 hours after JQ1 treatment, while 42% of the cells are in G1 state before drug treatment (error bars: ±SEM in 3 biological replicates).
First, it was postulated whether c-Myc levels in SkMel133 cells could be targeted using JQ1. […]

For assay [4], the system named is SkMel133 cells. The assay is described as follows: Cell viability, resazurin assay. The settings on record: highest doses applied. How it is done:
All phenotypic measurements were made in perturbation conditions identical to those in proteomic measurements. Cell viability and cell cycle progression were measured 72 hours after drug treatment using the Resazurin assay and flow cytometry analysis respectively. The percentage of cells in the G1, G2/M, and S phases and sub-G1 fraction were recorded based on the respective distribution of DNA content in each phase.
(In general: Alamar Blue is a resazurin reagent that responds to reducing activity.)

Assay [5] relates to BRD4. The assay is described as follows: Western blot of BRD4 level. The settings on record: 24 hours after treatment. The protocol: as §2
Assay [6] deals with 4EBP1pS65. The assay is described as follows: Western blot IC40 of downstream effector readout. Conditions: concentration inhibiting 4EBP1pS65 readout by 40%, SkMel133. The protocol: as §1
Assay [7] concerns GSK3pS21. Kind of assay: Western blot IC40 of downstream effector readout. The settings on record: concentration inhibiting GSK3pS21 readout by 40%, SkMel133. How it is done: as §1
For assay [8], the system named is MAPK1pT202. The assay is described as follows: Western blot IC40 of downstream effector readout. The settings on record: concentration inhibiting MAPK1pT202 readout by 40%, SkMel133. The protocol: as §1
The test system of assay [9] is S6pS240. The assay is described as follows: Western blot IC40 of downstream effector readout. The settings on record: concentration inhibiting S6pS240 readout by 40%, SkMel133. How it is done: as §1
Assay [10] concerns STAT3pY705. The assay is described as follows: Western blot IC40 of downstream effector readout. Conditions: concentration inhibiting STAT3pY705 readout by 40%, SkMel133. The protocol:
as §1

Each structure is given as a SMILES string.

For the molecule `O=c1[nH]c2ccccc2n1C1CCN(Cc2ccc(-c3nc4cc5nc[nH]c5cc4nc3-c3ccccc3)cc2)CC1` [AKTi 1/2], the “Dose 1 (IC40)” value in assay [1] is 5.000 nM.

As for `O=C(CCCCCCSc1ccc2ccccc2c1)NO` [HNHA], in assay [2], the “Dose 1 (IC40)” value is listed as 6,000 nM.

As to `Cc1sc2c(c1C)C(c1ccc(Cl)cc1)=N[C@@H](CC(=O)OC(C)(C)C)c1nnc(C)n1-2` [JQ1], the c-Myc expression level result in assay [3] is reported as “reduced”. Besides, in [4], the “maximal effect level (Amax, response to the drugs at highest doses)” value is reported as 10%. Also, in assay [5], the BRD4 level result is “unchanged”.

In the case of `COc1ccc(C2=NC(c3ccc(Cl)cc3)C(c3ccc(Cl)cc3)N2C(=O)N2CCNC(=O)C2)c(OC(C)C)c1` (stereo not shown) [Nutlin], the “Dose 1 (IC40)” value in assay [6] is 3,000 nM.

Consider `CC(C)(C)c1nc2c3cc[nH]c(=O)c3c3cc(F)ccc3c2[nH]1` [P6], for which the “Dose 1 (IC40)” value in assay [7] was found to be 20 nM.

With `O=C(NOC[C@H](O)CO)c1ccc(F)c(F)c1Nc1ccc(I)cc1F` [PD0325901], in [8], the “Dose 1 (IC40)” value was 1.5 nM.

`CCCS(=O)(=O)Nc1ccc(F)c(C(=O)c2c[nH]c3ncc(Cl)cc23)c1F` [PLX4720]: the “Dose 1 (IC40)” value in assay [8] is on record as 60 nM.

`Cn1cc(C2=C(c3cn(CCCN)c4ccccc34)C(=O)NC2=O)c2ccccc21` [RO-31-7549]: the “Dose 1 (IC40)” value in assay [9] was 3500 nM.

As to `O=[N+]([O-])c1ccc2c(c1)S(=O)(=O)C=C2` [Stattic], the “Dose 1 (IC40)” value in assay [10] was 600 nM.

In the case of `CO[C@H]1C[C@@H]2CC[C@@H](C)[C@@](O)(O2)C(=O)C(=O)N2CCCC[C@H]2C(=O)O[C@H]([C@H](C)C[C@@H]2CC[C@@H](OC(=O)C(C)(CO)CO)[C@H](OC)C2)CC(=O)[C@H](C)/C=C(\C)[C@@H](O)[C@@H](OC)C(=O)[C@H](C)C[C@H](C)/C=C/C=C/C=C/1C` [Temsirolimus], in assay [9], the “Dose 1 (IC40)” value was 0.3 nM.

`FC(F)c1nc2ccccc2n1-c1nc(N2CCOCC2)nc(N2CCOCC2)n1` [ZSTK474]: the “Dose 1 (IC40)” value in assay [1] is 600 nM.

Source of the values: patent US20150345047A1, “SYSTEMS AND METHODS FOR IDENTIFYING DRUG COMBINATIONS FOR REDUCED DRUG RESISTANCE IN CANCER TREATMENT” (Memorial Sloan Kettering Cancer Center, priority 2014, published 2015).
